Data: patent US20260315564A1, “THE USE OF TP3 (THYMOPENTIN ANALOG) BY INCREASING THE ACTIVITY AND NUMBER OF T-CELLS INVOLVED IN THE DEFENSE MECHANISM OF THE IMMUNE SYSTEM OF MAMMALS, FOR THE PREVENTION OR TREATMENT OF DISEASES TO EXTEND THE AVERAGE LIFESPAN” (priority 2023, published 2026)
Marks after values point to notes of the source that are not given here. Residues, ends and D or L forms follow the SMILES beside them.

Legend:
[1] = system: Thy1+ cells in the spleens; test: Number of Thy1+ cells in spleens of Balb/c nu/nu mice after TP-fragment treatment; assay type: in vivo; conditions: ip, n = 8/group, control 5.4
Experimental: (§1) • D.1/Direct cytotoxicity test/for the detection of Thy, Lyt antigens (Fathman 1979, in Immunol Meth I. Eds. Lefkovits, Pernis, Acad Press, New York, pp. 212-213.) was used. Subpopulation ratios were determined from bone marrow cells, thymus, and spleen cells isolated from the lymphatic organs of mice. The cell suspensions (1.087-1.088 g/cm3) were centrifuged ona density gradient (2000 rpm, 20 minutes), and the cells were washed 3× with RPMI1640 medium containing 0.3% BSA, then adjusted to 107/ml. Thyl, Lyt 1, Lyt2 monoclonal antibodies (McAb/Ando I. (ICRF Human Tumor Immunol. UCM Med Sch. London) were obtained. 25 μl McAb and 25 ul cell suspension were incubated (60′, 40C1), after centrifugation (1250 rpm 10′), the cells were resuspended with 40 μul of diluted (1:50) rabbit complement, then incubated (370C, 60′). The cell suspensions were stained with 1:5 dilution of Eosin Y (Jansen). the ratio of live to non-living cells was determined.
Mice were treated for 4 weeks 3 times a week (every other day) with TP fragments (10-9, 10-8, 10-7//10-3, 10-2, 10-1 M/animal ip. (Veys et al., 1983) at the end of the treatments ([…]), the mice were immunized (with 0.5 ml 1% BVVT suspension ip. The immune response was expressed in antibody titers as above).
Effects of inducing renewal of the immune system and increasing activity in Balb/c nude mice The nude mouse is genetically deficient in the thymus. The […] atrophies over time after hormonal follow-up in mice and humans. As a result, the strength of the lymphoid, and within that of the T cells, decreases. All this means a definitive decrease in antigen recognition capacity. The increasing number and activity of immune cells in the thymus of nude mice is increasing health and quality of life span.
The number of Thy1+ cells in the spleens of Balb/c nu/nu mice after TP-fragment treatment (Thy 1+ marker-bearing cells in mice correspond to human lymphocytes)

[2] = system: Thy1+, Lyt 1+ (helper) and Lyt 2+ (suppressor) cells; test: Thy1+ cells and helper/suppressor (Lyt 1/Lyt 2) cell ratio in bone marrow and spleen of Balb/c nu/nu mice; assay type: in vivo; conditions: for Lyt 1/Lyt 2 (helper/suppressor cell ratio) / Thy1+ (%): 10^-5 M/mice/ip every other day for 3 weeks (9x)
Experimental: as §1
n=8/group; Treatment: 10^-5 M/mice/ip every other day for 3 weeks (9×/ip.)

[3] = system: healthy human lymphocytes; test: E-rosette test, ex vivo on healthy human cells; assay type: cell-based; parameters: effect ex vivo on healthy human cells (rosette-forming cells): unit not given here; conditions: for effect ex vivo on healthy human cells (rosette-forming cells): control 27.8 (TP5), 30.3 (TP3)
Experimental: Blood from donors was used for our experiments, where the blood samples were used either from animals or human donors. The heparinized blood samples were separated on a (FicolUromiro/Pharmacia-Bracco) gradient (Boyum 1968). 2×10^6 and 107 lymphocytes/ml cells were tested in E-rosette tests, the blood donors were the following animals: • Rat: Hannover Wistar (Richter) newborn rats were used to study the maturation of the immune response. As our mothers, 12 (maximum) randomized newborns were placed (21±10C, humidity: min. 65%) in a test litter. • Guinea pig: Donkin-Hartley (Lati) 250-300 g male animals were included for the DTH reaction test. • 2.3.3/Mice: Mouse strains of different genetic backgrounds were used: CFLP (outbred) from the Lati stock), Balb/c (inbred) and Balb/c nu/nu mice from the SzBC/Szeged stock.
In a preliminary study, the ED75 inhibitory effect of azathioprine was determined (Verhagen et al., 1980) and 500 μg/ml was used during the studies. An equal volume (200 μl) of activityinhibiting and isolated cell suspension and peptides ([…]) were measured. After 1 h (370C) incubation, the cell suspensions received 200 μl of 1% SRBC suspension and then centrifuged (90×g 5 minutes), 400 μl of the supernatant was aspirated.
The number of rosette-forming cells was counted. The activity was determined as percent recovery (R %). […]

peritoneal macrophages = test: Phagocytic function of peritoneal macrophages ex vivo in CFLP outbred mice (CY-immunosuppressed); conditions: for macrophage phagocytosis ex vivo: CY-treated mice, n = 15, untreated control 194.5, CY 111.5
Source text: 6.2./Examination of the Effect on the Phagocytic Function of Peritoneal Macrophages CFLP Outbred in Mice
Macrophage phagocytosis ex vivo (X=yeast/100 cells)

[4] = High-dose / long-term tolerability in animals; assay type: in vivo; conditions: 12 months of use, in words
[5] = 12-24 months, Friedmann 1985, in words; cited from earlier work

## CC(C)[C@H](NC(=O)[C@H](CC(=O)O)NC(=O)[C@H](CCCCN)NC(=O)[C@@H](N)CCCN=C(N)N)C(=O)N[C@@H](Cc1ccc(O)cc1)C(=O)O [TP5] (H-RKDVY-OH)
[1]; 10^-1 M/mice
  number of Thy1+ cells in spleen: 131*
[1]; 10^-2 M/mice
  number of Thy1+ cells in spleen: 129**
[1]; 10^-3 M/mice
  number of Thy1+ cells in spleen: 94*
[1]; 10^-7 M/mice
  number of Thy1+ cells in spleen: 125**
[1]; 10^-8 M/mice
  number of Thy1+ cells in spleen: 79*
[1]; 10^-9 M/mice
  number of Thy1+ cells in spleen: 9.5
[2]; bone marrow (Csontvelő), control 0.97
  Lyt 1/Lyt 2 (helper/suppressor cell ratio): 1.95
[2]; bone marrow (Csontvelő), control 3.7
  Thy1+ (%): 47.3%
[2]; spleen (Lép), control 1.10
  Lyt 1/Lyt 2 (helper/suppressor cell ratio): 2.48
[2]; spleen (Lép), control 5.4
  Thy1+ (%): 71.0%
[2]; spleen, 10^-5 M/mice/ip, 9x
  change in the spleen: 130%
[3]; 10^-5 mol/l
  effect ex vivo on healthy human cells (rosette-forming cells): 26.9
[3]; 10^-6 mol/l
  effect ex vivo on healthy human cells (rosette-forming cells): 24.4
[3]; 10^-7 mol/l
  effect ex vivo on healthy human cells (rosette-forming cells): 29.4
[3]; 10^-8 mol/l
  effect ex vivo on healthy human cells (rosette-forming cells): 27.1
[3]; 10^-9 mol/l
  effect ex vivo on healthy human cells (rosette-forming cells): 26.1
[3]; 10^-11 mol/l
  effect ex vivo on healthy human cells (rosette-forming cells): 25.5
[3]; 10^-12 mol/l
  effect ex vivo on healthy human cells (rosette-forming cells): 28.4
[3]; 10^-13 mol/l
  effect ex vivo on healthy human cells (rosette-forming cells): 25.9
[3]; 10^-14 mol/l
  effect ex vivo on healthy human cells (rosette-forming cells): 26.1
[3]; in words
  activity on lymphocytes from healthy individuals: ineffective
Peritoneal macrophages; CY immunosuppression, 1.0 mg/kg/sc (TP3), in words
  phagocytic activity of macrophages: ineffective
Peritoneal macrophages; TP dose 0.1 (mg/kg/sc)
  macrophage phagocytosis ex vivo: 149.6 yeast/100 cells
Peritoneal macrophages; TP dose 1.0 (mg/kg/sc)
  macrophage phagocytosis ex vivo: 123.1 yeast/100 cells
Peritoneal macrophages; TP dose 10.0 (mg/kg/sc)
  macrophage phagocytosis ex vivo: 95.6 yeast/100 cells
[4]
  side effects: did not cause any signs of side effects
[5]
  safety in patients: well-used, safe drug candidate
